Test results from US20060276416A1, “Methods and compositions for treating flushing and drug induced weight gain” (Sirtris Pharmaceuticals, Inc., priority 2005, published 2006).

Legend:
[1] = test system: Human 293; experiment: Survival of 293 cells (Coulter counter); format: cell-based; conditions: 50 micromolar
Excerpt: The number of live cells each time point was counted using a Coulter counter.

[2] = test system: C. elegans; experiment: C. elegans fat accumulation, Nile Red staining; format: in vivo; conditions: 100 μM
Protocol: Fat accumulation was visualized with Nile Red staining, as described further below and in Ashrafi K, et al. Nature 421:268-27 (2003).
Synchronized starved L1 worms were grown in the presence of Nile Red. Strains were grown on NGM plates at 25° C. for approximately 48 hours until the young adult stage was reached. 20-30 young adult worms were then washed 2× with M9 buffer and transferred to new NGM/Nile red experimental plates that contained either OP50 or HTT5 E. coli carrying the L4440 RNAi control vector.
Young adults were transferred to plates containing the appropriate vector, Nile Red stain and drug then maintained at 25° C.
Nile Red: Nile Red Powder (Sigma #N-3013) was dissolved in acetone at 500 μg/ml, diluted in 1× Phosphate Buffered Saline (PBS) including appropriate drug and applied to surface of Nematode Growth Media (NGM) plates previously seeded with OP50 or RNAi bacteria, at a final concentration of 0.05 μg/ml. Fat content was monitored and recorded by fluorescence microscopy.

[3] = target: T1, recombinant human SIRT1 (Homo sapiens, UniProt Q96EB6); experiment: SIRT1 fluorescent deacetylation assay (p53-382 acetylated peptide); format: biochemical
T1 sequence (Q96EB6 1-747): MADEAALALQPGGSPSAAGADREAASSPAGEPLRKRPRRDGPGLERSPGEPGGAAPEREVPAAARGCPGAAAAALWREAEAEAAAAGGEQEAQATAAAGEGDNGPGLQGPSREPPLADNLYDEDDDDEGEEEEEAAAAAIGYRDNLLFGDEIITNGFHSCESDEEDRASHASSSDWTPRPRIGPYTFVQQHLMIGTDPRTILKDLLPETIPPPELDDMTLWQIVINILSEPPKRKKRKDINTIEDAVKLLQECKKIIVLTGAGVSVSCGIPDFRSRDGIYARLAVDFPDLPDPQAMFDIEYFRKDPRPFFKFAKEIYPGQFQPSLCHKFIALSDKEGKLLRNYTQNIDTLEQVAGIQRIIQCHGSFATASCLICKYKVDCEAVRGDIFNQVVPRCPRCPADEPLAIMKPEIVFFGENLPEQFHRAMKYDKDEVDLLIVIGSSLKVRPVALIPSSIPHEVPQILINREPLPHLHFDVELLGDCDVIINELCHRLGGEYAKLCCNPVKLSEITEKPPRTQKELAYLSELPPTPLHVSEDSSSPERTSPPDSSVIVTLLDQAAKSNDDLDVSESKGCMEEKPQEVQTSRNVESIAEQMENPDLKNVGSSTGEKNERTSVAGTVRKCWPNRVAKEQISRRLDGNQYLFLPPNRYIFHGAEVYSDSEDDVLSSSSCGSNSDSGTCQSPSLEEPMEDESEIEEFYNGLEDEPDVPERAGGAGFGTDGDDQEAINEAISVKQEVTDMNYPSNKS

[4] = test system: HeLa S3 cells; experiment: Cellular deacetylase assay (TSA-insensitive FdL deacetylation); format: cell-based, human; conditions: 500 μM compound, 200 μM FdL, 1 μM TSA, 1 hour
Protocol: FdL (200 μM) is added to growth media and cells incubated for 1-3 hours to allow FdL to enter the cells and the lysine-deacetylated product (deAc-FdL) to accumulate intracellularly. Cells are lysed with detergent in the presence of 1 μM TSA, 1 mM nicotinamide. Addition of the non-cell-permeable Developer (BIOMOL) releases a fluorophor, specifically from deAc-FdL. b, SIRT1 activating polyphenols can stimulate TSA-insensitive, FdL deacetylation by HeLa S3 cells. Cells were grown adherently in DMEM/10% FCS and treated for 1 hour with 200 μM FdL, 1 μM TSA and either vehicle (0.5% final DMSO, Control) or 500 μM of the indicated compound. Intracellular accumulation of deAc-FdL was then determined as described briefly in a. […] Lysates were prepared and analyzed as above. […]
Themed compound libraries (BIOMOL) were used for primary and secondary screening. […] In vitro fluorescence assay results were read in white ½-volume 96-well microplates (Corning Costar 3693) with a CytoFluor™ II fluorescence plate reader (PerSeptive Biosystems, Ex. 360 nm, Em. 460 nm, gain=85). HeLa cells were grown and the cellular deacetylation assays were performed and read, as above, but in full-volume 96-well microplates (Corning Costar 3595). […]

Compound	Toxicity on 293 cells (in words) [1]	Fat staining ([2]; 24 hours, control 1% v/v DMSO)	v1/v2 (rate for pure SIRT1/BML-230 divided by that for pure SIRT1/resveratrol) ([3]; R at 500 μM)	Stimulated SIRT1 activity compared with resveratrol ([3]; all concentrations tested, 25 μM NAD+ and p53-382 peptide, 20 minutes)	Dissociation constant of SIRT1 complex compared with SIRT1/resveratrol ([3]; inferred from two state model)	Effect on the cellular (TSA-insensitive) deacetylation signal [4]	Fat mobilization ([2]; 48 hours)
CSc1ccc(/C=C/c2cc(O)cc(O)c2)cc1 [BML-230, 3,5-dihydroxy-4′-thiomethyl-trans-stilbene]	The results indicate that thiomethyl (BML-230) was the least toxic on 293 cells.	Significant reduction	≤ 1.4	exceeds	lower dissociation constant	–	–
O=C(/C=C/c1ccc(O)c(O)c1)c1ccc(O)cc1O [butein, 3,4,2′,4′-Tetrahydroxychalcone]	–	–	–	–	–	no effect	stimulate fat mobilization
